ChEMBL document CHEMBL1145976, “Non-peptide angiotensin II receptor antagonists: chemical feature based pharmacophore identification” (J Med Chem, 2003)

Target: T1, Angiotensin II receptor (AT-1) type-1 (Rattus norvegicus, UniProt P29089+P25095)
T1 sequence (P29089 whole entry): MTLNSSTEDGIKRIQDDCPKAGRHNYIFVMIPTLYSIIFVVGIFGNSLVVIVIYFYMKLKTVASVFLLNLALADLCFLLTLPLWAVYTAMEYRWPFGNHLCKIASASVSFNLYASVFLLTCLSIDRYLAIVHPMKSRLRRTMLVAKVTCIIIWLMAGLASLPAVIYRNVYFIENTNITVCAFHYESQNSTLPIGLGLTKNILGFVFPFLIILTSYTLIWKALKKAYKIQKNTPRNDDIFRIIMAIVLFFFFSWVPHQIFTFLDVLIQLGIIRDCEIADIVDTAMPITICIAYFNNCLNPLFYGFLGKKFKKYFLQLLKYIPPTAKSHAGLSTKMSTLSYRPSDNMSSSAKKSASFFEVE
T1 sequence (P25095 whole entry): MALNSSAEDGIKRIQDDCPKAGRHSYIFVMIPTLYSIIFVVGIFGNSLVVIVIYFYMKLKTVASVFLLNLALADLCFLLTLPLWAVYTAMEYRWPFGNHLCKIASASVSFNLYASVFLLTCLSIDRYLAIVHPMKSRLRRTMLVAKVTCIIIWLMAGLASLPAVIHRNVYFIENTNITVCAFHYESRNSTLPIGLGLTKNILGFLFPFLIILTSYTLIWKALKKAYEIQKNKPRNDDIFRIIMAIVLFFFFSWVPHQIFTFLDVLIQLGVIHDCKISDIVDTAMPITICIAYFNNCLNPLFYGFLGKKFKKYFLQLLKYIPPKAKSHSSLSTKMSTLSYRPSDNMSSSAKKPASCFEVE
Test: Inhibitory concentration that gives 50% displacement of specific binding at labeled angiotensin II type 1 receptor in rat adrenal cortical membranes.
Type: cell membranes, Membrane

| Structure (SMILES) | IC50 [µM] |
| --- | --- |
| CCCCc1nc(Cl)c(CC(=O)OC)n1Cc1ccc(NC(=O)c2ccccc2NS(=O)(=O)C(F)(F)F)cc1 | 0.5 |
| CCCCc1nc(Cl)c(CC(=O)O)n1Cc1ccc(CC(=O)O)cc1 | 13 |
| CCCCc1nc(Cl)c(COC)n1Cc1ccc(NC(=O)Cc2ccccc2CC(=O)O)cc1 | 2.8 |
